Measurements published in paper PMC10885153, “Membrane Permeability in a Large Macrocyclic Peptide Driven by a Saddle-Shaped Conformation” (Journal of the American Chemical Society, 2024).
In brackets after ≈: the same amount, converted by molar mass. Positions of bridges follow the written chain, without caps; N, C: chain ends. Non-standard residues stand in square brackets, D forms with d. Residues, ends and D or L forms follow the SMILES beside them. Cha = N[C@@H](CC1CCCCC1)C(=O)O; NMeNva = CCC[C@H](NC)C(=O)O; NMeC = CN[C@@H](CS)C(=O)O; NMeA = CN[C@@H](C)C(=O)O; dAbu = CC[C@@H](N)C(=O)O; dNMeA = CN[C@H](C)C(=O)O; Nva = CCC[C@H](N)C(=O)O; Abu = CC[C@H](N)C(=O)O; Nleu = CC(C)CNCC(=O)O; NPrGly = CCCNCC(=O)O; NEtG = CCNCC(=O)O

Columns and labels:
[1] = PAMPA, 10 µM, pH 7.4
Experimental: (§1) Passive permeabilities of the 36 compounds were measured in multiplex as mixtures of six compounds each using the parallel artificial membrane permeability assay (PAMPA).[44]−[46]
(§2) Protocol is identical for both mixture and pure compound analysis.
(§3) Two of the following: Carbamazepine (CBZ), propranolol (Prop), and 1NMe35 were
(§4) included as internal standards and prepared as DMSO stocks at a concentration of 2 000 µM.
(§5) assay was carried out with a 96-well donor plate with 0.45 μ hydrophobic Immobilon-P membrane supports
(§6) (Millipore MAIPNTR10) and a 96-well Teflon acceptor plate (Millipore MSSACCEPTOR).
protocol then proceeded as follows:
(§7) Donor well solutions were prepared to a volume of 1 000 µL with the analytes as a solution in 1X
(§8) PBS pH 7.4 and 5% DMSO. To a 3 mL Eppendorf tube was added 950 µL of 1X PBS pH 7.4, 40
(§9) The solutions were vortexed and set aside.
Analyte – 10 µM per compound
(§10) A 1% solution of soy lecithin in dodecane was freshly prepared in a 3 mL Eppendorf tube and
(§11) sonicated (5 min) to ensure full dissolution of the lecithin. The donor membrane plate was turned
(§12) upside down and bottom of the membranes exposed. 5 µL of the 1% soy lecithin solution in
(§13) dodecane was then placed on the bottom of the membrane, allowing the drop to spread across the
(§14) full area of the membrane. Any membranes with visible damage were not used in the assay.
(§15) membranes were allowed to equilibrate for 5 min before loading.
(§16) Each well within the Teflon block acceptor plate that was to be used in the assay was then loaded
(§17) with 300 µL of 1X PBS pH 7.4 and 5% DMSO.
(§18) Working without break, 150 µL of each donor well solution was transferred from the to the 96-well
(§19) donor plate. Each mixture of interest was r un in quadruplicate, using a new well for each replicate.
(§20) As soon as the 96-well donor plate was finished being loaded, it was gently placed into the 96-well
(§21) Teflon acceptor plate, taking care not to trap any air bubbles beneath the membrane.
(§22) The donor/acceptor plates were covered gently with the lid to minimize evaporation and transferred
(§23) gently as a system to a sealed chamber and left to sit overnight at room temperature. The chamber
(§24) was kept from drying by placing a wet paper towel within to prevent evaporation.
(§25) After ~19-20 hours the donor plate was removed from the acceptor plate.
(§26) 50 µL of each well (donor and acceptor) were transferred to a 96 -well plate and diluted with 50 µL
(§27) of methanol prior to heat sealing and quantification by UPLC -MS.

[2] = in vitro; details: PAMPA
Experimental: as §5
(Millipore MAIPNTR10) and a 96-well Teflon acceptor plate (Millipore MSSACCEPTOR). The PAMPA
protocol then proceeded as follows:
as §7, §8
Analyte – 10 µM per compound
as §11, §12, §13
full area of the membrane. Any membranes with visible damage were not used in the assay. The
as §15
3. Each well within the Teflon block acceptor plate that was to be used in the assay was then loaded
as §17, §18, §19, §20, §21, §22, §23, §24, §25, §26, §27

[3] = in vitro; details: dog, pH 7.4
Experimental: We also tested the permeabilities of the pure compounds in a cell-based trans-well permeability assay using Mdr1 knockout Madin–Darby canine kidney (MDCK) cells which minimize the endogenous efflux activity of traditional MDCK cells.[54]
The gMDCKI cell line (overexpressed cell line of Madin -Darby Canine Kidney which acquired from the NIH)
maintained in DMEM medium supplemented with 1% pen -strep, 5 µg/mL Plasmocin, and 10% FBS under
standard culture conditions (37 °C, 95% humidity, and 5% CO2), were seeded (0.75 x 10^5 cells) on the HTS
Transwell-96 permeable support (Corning) to form a confluent monolayer for two days.
All experimental steps were fully automated on Hamilton Vantage. Compound stock solution (1 mM in
DMSO) was diluted (10 μM final in HBSS, pH 7.4) with Lucifer Yellow as leakage indicator (20 μM). After
washing with HBSS buffer, the solution of test compounds was added to the apical side of the monolayers.
The plate was incubated for 3 h at 37 °C. T0 samples (10 µL of the 10 µM compounds diluted solution with
LY) were transferred to a 96-well plate, and then 40 µL of HBSS was added. After 3 hours, 50 μL basolateral
samples in the receiving plate were transferred to a fresh 96-well plate and added 100 μL of IS solution
(Propranolol). LY were read by plate reader and the samples were analyzed by LC/MS/MS.
The apparent permeability coefficient (Papp) is calculated from the permeation rate and compound
concentration at t=0h and t=3h. Where:
dQ/dt: amount of product present in the basal (A-B) or apical (B-A) compartment as a function of time
A: area of transwell (cm2).
C0: initial concentration of product applied in the apical (A -B) or basal (B-A) compartment (nmol/ml).

[4] = physchem; details: pH 7.4, aqueous with cosolvent or surfactant or cyclodextrin, kinetic from dmso stock
Experimental: Kinetic Solubility PBS Protocol
4 µL of 10 mM compound in DMSO stock was added to 196 µL 1 X PBS pH 7.4 in a 96 -well microplate to
get a final concentration of 200 µM to shake for 24 hours at 1000 rpm. The sample was filtered sample
using a 96-Multiscreen HTS filter plate (Millipore MSSL BPC50) and a positive pressure manifold.

[5] = in vitro; details: PAMPA, pH 7.4, Permeability (Papp) PAMPA (mixture)
Experimental: as §1, §2, §3, §4, §5, §6
protocol then proceeded as follows:
as §7, §8, §9
Analyte – 10 µM per compound
as §10, §11, §12, §13, §14, §15, §16, §17, §18, §19, §20, §21, §22, §23, §24, §25, §26, §27

[6] = PAMPA, compounds measured in multiplex as mixtures (primary protocol); details: PAMPA, pH 7.4, PAMPA Papp, internal standard, 10 µM
Experimental: as §1, §2, §3, §4, §5, §6
protocol then proceeded as follows:
as §7, §8, §9
Analyte – 10 µM per compound
as §10, §11, §12, §13, §14, §15, §16, §17, §18, §19, §20, §21, §22, §23, §24, §25, §26, §27

[7] = pH 7.4, Permeability (Papp) PAMPA (indiv.)

Row | SMILES | %R_avg [1] [%] | Papp at 10 µM [2, 7] [×10⁻⁶ cm/s] | Papp A→B at 3 h, 10 µM ([3]; MDCK) [×10⁻⁶ cm/s] | solubility kinetic at 24 h [4] [µM] | Papp at 10 µM ([2]; pH 7.4, PAMPA Papp) [×10⁻⁶ cm/s] | Papp A→B at 3 h, 10 µM [3] [×10⁻⁶ cm/s] | Papp at 3 h, 10 µM ([3]; MDCK) [×10⁻⁶ cm/s] | also measured
1 | CCC[C@@H]1NC(=O)CN(CC)C(=O)[C@H](CC(C)C)NC(=O)CSC[C@@H](C(=O)OCC)N(C)C(=O)[C@H](CC(C)C)NC(=O)[C@H](C)N(C)C(=O)[C@H](CC2CCCCC2)NC(=O)[C@H](C)N(C)C(=O)[C@H]2CCCN2C1=O [LB09, O=C(N(C)[C@H](C(OCC)=O)CSCC(N[C@H](C1=O)CC(C)C)=O)[C@H](CC(C)C)NC([C@H](C)N(C)C([C@H](CC2CCCCC2)NC([C@H](C)N(C)C([C@@H]3N(C([C@H](CCC)NC(CN1CC)=O)=O)CCC3)=O)=O)=O)=O] ({CH2CO}-L[NEtG][Nva][dP][NMeA][Cha][NMeA]L[NMeC]-OEt; thioether N-9) | 6.4 | 1.4 | 4.4 | 19 (≈ 19.7 µg/mL) | – | – | – | –
2 | CCOC(=O)[C@@H]1CSCC(=O)N[C@@H](CC)C(=O)N(CC(C)C)CC(=O)N[C@@H](CC(C)C)C(=O)N(C)[C@H](C)C(=O)N(C)[C@@H](C)C(=O)N[C@H](CC(C)C)C(=O)N(C)[C@H](C)C(=O)N[C@@H](CC(C)C)C(=O)N1C [B1-1L, O=C([C@@H](NC([C@H](N(C([C@H](NC([C@@H](N(C([C@H](N(C)C([C@@H](NC(CN1CC(C)C)=O)CC(C)C)=O)C)=O)C)C)=O)CC(C)C)=O)C)C)=O)CC(C)C)N([C@@H](CSCC(N[C@@H](CC)C1=O)=O)C(OCC)=O)C] ({CH2CO}-[Abu][Nleu]L[dNMeA][NMeA][dL][dNMeA]L[NMeC]-OEt; thioether N-9) | – | – | – | – | 0.5 | 0.03 | – | Papp at 10 µM ([2]; pH 7.4, PAMPA Pe_avg): 0.455 ×10⁻⁶ cm/s
3 | CCOC(=O)[C@@H]1CSCC(=O)N[C@H](CC)C(=O)N(CC(C)C)CC(=O)N[C@@H](CC(C)C)C(=O)N(C)[C@H](C)C(=O)N(C)[C@@H](C)C(=O)N[C@@H](CC(C)C)C(=O)N(C)[C@H](C)C(=O)N[C@@H](CC(C)C)C(=O)N1C [B1-6L, O=C([C@@H](NC([C@H](N(C([C@@H](NC([C@@H](N(C([C@H](N(C)C([C@@H](NC(CN1CC(C)C)=O)CC(C)C)=O)C)=O)C)C)=O)CC(C)C)=O)C)C)=O)CC(C)C)N([C@@H](CSCC(N[C@H](CC)C1=O)=O)C(OCC)=O)C] ({CH2CO}-[dAbu][Nleu]L[dNMeA][NMeA]L[dNMeA]L[NMeC]-OEt; thioether N-9) | – | – | – | – | 0.7 | 0.39 | 0.4 | Papp at 10 µM ([2]; pH 7.4, PAMPA Pe_avg): 0.738 ×10⁻⁶ cm/s
4 | CCOC(=O)[C@@H]1CSCC(=O)N[C@H](CC)C(=O)N(CC(C)C)CC(=O)N[C@@H](CC(C)C)C(=O)N2CCC[C@@H]2C(=O)N(C)[C@@H](C)C(=O)N[C@H](CC(C)C)C(=O)N(C)[C@H](C)C(=O)N[C@@H](CC(C)C)C(=O)N1C [B1-4dP, O=C([C@@H](NC([C@H](N(C([C@H](NC([C@@H](N(C([C@@H]1N(CCC1)C([C@@H](NC(CN2CC(C)C)=O)CC(C)C)=O)=O)C)C)=O)CC(C)C)=O)C)C)=O)CC(C)C)N([C@@H](CSCC(N[C@H](CC)C2=O)=O)C(OCC)=O)C] ({CH2CO}-[dAbu][Nleu]L[dP][NMeA][dL][dNMeA]L[NMeC]-OEt; thioether N-9) | – | – | – | – | 0.1 | 0.0274 | – | Papp at 10 µM ([2]; pH 7.4, PAMPA Pe_avg): 0.213 ×10⁻⁶ cm/s
5 | CCC[C@@H]1NC(=O)[C@H](C)N(C)C(=O)[C@H](CC(C)C)NC(=O)CSC[C@@H](C(=O)OCC)N(C)C(=O)[C@H](CC(C)C)NC(=O)[C@H](C)N(C)C(=O)[C@H](CC(C)C)NC(=O)[C@H](CCC)N(C)C(=O)[C@H]2CCCN2C1=O [LC07, O=C(N(C)[C@H](C(OCC)=O)CSCC(N[C@H](C(N(C)[C@@H](C)C(N[C@@H](CCC)C(N1[C@H](CCC1)C(N(C)[C@@H](CCC)C(N[C@H]2CC(C)C)=O)=O)=O)=O)=O)CC(C)C)=O)[C@H](CC(C)C)NC([C@H](C)N(C)C2=O)=O] ({CH2CO}-L[NMeA][Nva][dP][NMeNva]L[NMeA]L[NMeC]-OEt; thioether N-9) | 4.5 | 1.1 | 3.9 | 109 (≈ 111 µg/mL) | – | – | – | –
6 | CCC[C@@H]1NC(=O)[C@H](C)N(C)C(=O)[C@H](CC(C)C)NC(=O)CSC[C@@H](C(=O)OCC)N(C)C(=O)[C@H](CC(C)C)NC(=O)[C@H](C)N(C)C(=O)[C@H](CC2CCCCC2)NC(=O)CN(CC)C(=O)[C@H]2CCCN2C1=O [LA09, O=C(N(C)[C@H](C(OCC)=O)CSCC(N[C@H](C(N(C)[C@@H](C)C(N[C@@H](CCC)C(N1[C@H](CCC1)C(N(CC)CC(N[C@H]2CC3CCCCC3)=O)=O)=O)=O)=O)CC(C)C)=O)[C@H](CC(C)C)NC([C@H](C)N(C)C2=O)=O] ({CH2CO}-L[NMeA][Nva][dP][NEtG][Cha][NMeA]L[NMeC]-OEt; thioether N-9) | 7.5 | 0.2 | 5.1 | 10 (≈ 10.3 µg/mL) | – | – | – | –
7 | CCC[C@@H]1NC(=O)[C@H](C)N(C)C(=O)[C@H](CC(C)C)NC(=O)CSC[C@@H](C(=O)OCC)N(C)C(=O)[C@H](CC(C)C)NC(=O)[C@H](C)N(C)C(=O)[C@H](CC(C)C)NC(=O)CN(CCC)C(=O)[C@H]2CCCN2C1=O [LA07, O=C(N(C)[C@H](C(OCC)=O)CSCC(N[C@H](C(N(C)[C@@H](C)C(N[C@@H](CCC)C(N1[C@H](CCC1)C(N(CCC)CC(N[C@H]2CC(C)C)=O)=O)=O)=O)=O)CC(C)C)=O)[C@H](CC(C)C)NC([C@H](C)N(C)C2=O)=O] ({CH2CO}-L[NMeA][Nva][dP][NPrGly]L[NMeA]L[NMeC]-OEt; thioether N-9) | 6.6 | 1.3 | 8.4 | 122 (≈ 123 µg/mL) | – | – | – | Papp at 10 µM [5]: 3 ×10⁻⁶ cm/s
8 | CCOC(=O)[C@@H]1CSCC(=O)N[C@H](CC)C(=O)N(CC(C)C)CC(=O)N[C@@H](CC(C)C)C(=O)N(C)[C@H](C)C(=O)N(C)[C@@H](C)C(=O)N[C@H](CC(C)C)C(=O)N(C)[C@H](C)C(=O)N[C@@H](CC(C)C)C(=O)N1C [B1, O=C([C@@H](NC([C@H](N(C([C@H](NC([C@@H](N(C([C@H](N(C)C([C@@H](NC(CN1CC(C)C)=O)CC(C)C)=O)C)=O)C)C)=O)CC(C)C)=O)C)C)=O)CC(C)C)N([C@@H](CSCC(N[C@H](CC)C1=O)=O)C(OCC)=O)C] ({CH2CO}-[dAbu][Nleu]L[dNMeA][NMeA][dL][dNMeA]L[NMeC]-OEt; thioether N-9) | – | – | – | – | 10.1 | 1.27 | 1.3 | Papp at 10 µM ([2]; pH 7.4, Papp): ~10 ×10⁻⁶ cm/s
9 | CCC[C@@H]1NC(=O)CN(CCC)C(=O)[C@H](CC(C)C)NC(=O)CSC[C@@H](C(=O)OCC)N(C)C(=O)[C@H](CC(C)C)NC(=O)[C@H](C)N(C)C(=O)[C@H](CC(C)C)NC(=O)[C@H](C)N(C)C(=O)[C@H]2CCCN2C1=O [LB07, O=C(N(C)[C@H](C(OCC)=O)CSCC(N[C@H](C1=O)CC(C)C)=O)[C@H](CC(C)C)NC([C@H](C)N(C)C([C@H](CC(C)C)NC([C@H](C)N(C)C([C@@H]2N(C([C@H](CCC)NC(CN1CCC)=O)=O)CCC2)=O)=O)=O)=O] ({CH2CO}-L[NPrGly][Nva][dP][NMeA]L[NMeA]L[NMeC]-OEt; thioether N-9) | – | 2.2 | 3.2 | 132 (≈ 133 µg/mL) | 3.1 | 3.15 | 3.2 | –
10 | CCOC(=O)[C@@H]1CSCC(=O)N[C@H](CC)C(=O)N(CC(C)C)CC(=O)N[C@H](CC(C)C)C(=O)N(C)[C@H](C)C(=O)N(C)[C@@H](C)C(=O)N[C@H](CC(C)C)C(=O)N(C)[C@H](C)C(=O)N[C@@H](CC(C)C)C(=O)N1C [B1-3D, O=C([C@@H](NC([C@H](N(C([C@H](NC([C@@H](N(C([C@H](N(C)C([C@H](NC(CN1CC(C)C)=O)CC(C)C)=O)C)=O)C)C)=O)CC(C)C)=O)C)C)=O)CC(C)C)N([C@@H](CSCC(N[C@H](CC)C1=O)=O)C(OCC)=O)C] ({CH2CO}-[dAbu][Nleu][dL][dNMeA][NMeA][dL][dNMeA]L[NMeC]-OEt; thioether N-9) | – | – | – | – | 1.5 | 0.48 | 0.5 | –
11 | NC(=O)N1c2ccccc2C=Cc2ccccc21 [Carbamazepine] | – | – | – | – | – | – | – | Papp at 10 µM ([6]; Lipo expt. group A1): 5.9 ± 0.3 ×10⁻⁶ cm/s; Papp at 10 µM ([6]; Lipo expt. group A2): 6 ± 0.4 ×10⁻⁶ cm/s; Papp at 10 µM ([6]; Lipo expt. group B1): 5.8 ± 0.4 ×10⁻⁶ cm/s; Papp at 10 µM ([6]; Lipo expt. group B2): 6.3 ± 0.2 ×10⁻⁶ cm/s; Papp at 10 µM ([6]; Lipo expt. group C1): 6.8 ± 0.1 ×10⁻⁶ cm/s; Papp at 10 µM ([6]; Lipo expt. group C2): 6 ± 0.1 ×10⁻⁶ cm/s; Papp at 10 µM ([6]; StereoA expt. group A2D): 4.4 ± 0.1 ×10⁻⁶ cm/s; Papp at 10 µM ([6]; StereoA expt. group A2L): 4.4 ± 0.1 ×10⁻⁶ cm/s; Papp at 10 µM ([6]; StereoA expt. group ADD): 4.2 ± 0.1 ×10⁻⁶ cm/s; Papp at 10 µM ([6]; StereoA expt. group ADL): 4.3 ± 0.2 ×10⁻⁶ cm/s; Papp at 10 µM ([6]; StereoA expt. group ALD): 4.3 ± 0.1 ×10⁻⁶ cm/s; Papp at 10 µM ([6]; StereoA expt. group ALL): 5.1 ± 0.3 ×10⁻⁶ cm/s; Papp at 10 µM ([6]; StereoB expt. group B2D): 6.3 ± 1.7 ×10⁻⁶ cm/s; Papp at 10 µM ([6]; StereoB expt. group B2L): 5.6 ± 0.2 ×10⁻⁶ cm/s; Papp at 10 µM ([6]; StereoB expt. group BDD): 5.5 ± 0.1 ×10⁻⁶ cm/s; Papp at 10 µM ([6]; StereoB expt. group BDL): 5.8 ± 0.1 ×10⁻⁶ cm/s; Papp at 10 µM ([6]; StereoB expt. group BLD): 5.5 ± 0.1 ×10⁻⁶ cm/s; Papp at 10 µM ([6]; StereoB expt. group BLL): 5.8 ± 0.2 ×10⁻⁶ cm/s
